Results from publication PMC9141032 (International Journal of Molecular Sciences, 2022).
Converted amounts (≈) assume the structure as drawn.

How the values were obtained:
[1] = system: SH-SY5Y cells; test: Nitrite production (Griess) in 6-OHDA-treated SH-SY5Y cells; type: cell-based, human; conditions: 1 μM, 6-OHDA 25 μM 16 h
Text: Along with the neuronal loss, neuroinflammation is a process related to the onset of the disease, and it is an important contributor to the pathogenesis and progression of these disorders. […] .

[2] = Stability in mouse plasma; type: in vitro ADME; conditions: 10 µM, 37 °C
Protocol: The assessment of the plasma stability avoids misleading in vitro data and complex interpretation of the in vivo PK. […] Then, centrifugation led to a supernatant that was analysed for sample quantification.
Mouse plasma pooled from healthy donors extracted in citrate tubes was employed in the assay. […] Then, 100 µL of acetonitrile was added to precipitate the plasma protein, and the plate was centrifuged at 46,000× g for 60 min at 5 °C. Supernatant was taken and analysed by UPLC/MS/MS for sample quantification. The stationary phase was a reverse phase Acquity UPLC®BEH C18 1.7 µm (2.1 × 50 mm) (Waters), and the mobile phase was 0.1% formic acid in water/0.1% formic acid in acetonitrile, using a gradient and flow rate of 0.6 mL/min. The chromatographic equipment employed was an UPLC QSM Waters Acquity, and the compound concentrations were calculated from the MS peak areas.

[3] = Metabolic stability in human liver microsomes; type: in vitro ADME; conditions: HLM
Protocol: In the assay, the reaction was initiated by adding HLM (1 mg/mL) to an equal volume of buffer solution containing the test compound and cofactors at the proper concentrations. Reactions without NADPH were also incubated to rule out non-NADPH metabolism or chemical instability in the incubation buffer. Verapamil was included as a positive control to monitor incubation course. All reactions were terminated using 60 µL of ice-cold acetonitrile at 0, 5, 15, 30, 45, and 60 min. The plates were centrifugated at 3500 rpm for 15 min. All experiments were conducted in triplicate. Samples were monitored for B06 disappearance by LC-MS in MRM mode according to a quantitation method for B06. […]
concentration 1 μM, protein concentration 1 mg/mL, NADPH, 1.3 mM. Potassium phosphate buffer (100 mM) pH 7.4 and human liver microsomes, were purchased from Beckton Dickinson. […]
needed for the study was Beckman Coulter Refrigerated centrifuge, Agilent 1290 Infinity Liquid Chromatograph, CTC Analytics PAL HT‐xt injector, Api4000 Mass Spectrometer. Total incubation […]
Analysis: For the data analysis the area ratio of analyzed versus internal standard was used to calculate the percentage of remaning compound at each incubation time. The natural logarithm of […]
the following equation: Half‐life (T1/2) (min) = 0.693/k (the slope of the natural log of the percent remaining versus time). Intrinsic clearance was determined by the following equation: Clint H = Ln 2/t1/2 (min) x volume incubation (mL)/microsomal protein (mg) x 45 (MPPGL) 1500 g human liver/ 70 Kg human body weight. Units for CLint are usually expressed as mL/min/mg microsomal protein, MPPGL = referred to as mg microsomal protein per gram liver.
Table S1. Summary of LC‐MS conditions
Table S2. Percentage of verapamil remaining at each incubation time […]

[4] = system: mice; set-up: method as in ref 33 = [33]; PMID 32150414; doi:10.1021/acs.jmedchem.9b02080; 33. Abás S. Rodríguez-Arévalo S. Bagán A. Griñán-Ferré C. Vasilopoulou F. Brocos-Mosquera I. Muguruza C. Pérez B. Molins E. Luque F.J. Bicyclic α-Iminophosphonates as High Affinity Imidazoline I 2 Rec; conditions: repeated administration of 20 mg/kg for 5 days; cited from earlier work
[5] = set-up: method as in ref 33 = [33]; PMID 32150414; doi:10.1021/acs.jmedchem.9b02080; 33. Abás S. Rodríguez-Arévalo S. Bagán A. Griñán-Ferré C. Vasilopoulou F. Brocos-Mosquera I. Muguruza C. Pérez B. Molins E. Luque F.J. Bicyclic α-Iminophosphonates as High Affinity Imidazoline I 2 Rec; conditions: previous studies, cited from earlier work
[6] = set-up: method as in ref 33 = [33]; PMID 32150414; doi:10.1021/acs.jmedchem.9b02080; 33. Abás S. Rodríguez-Arévalo S. Bagán A. Griñán-Ferré C. Vasilopoulou F. Brocos-Mosquera I. Muguruza C. Pérez B. Molins E. Luque F.J. Bicyclic α-Iminophosphonates as High Affinity Imidazoline I 2 Rec; conditions: 1% DMSO and 99% PBS buffer; cited from earlier work
[7] = Metabolic stability in mouse liver microsomes; conditions: for % compound remaining: MLM
Protocol: The final concentration assay was 1
NADPH in 100 mM potassium phosphate buffer.
Spectrometer, Metabolite Pilot V 1.5 Software.
Method: Ionization mode, electrospray positive; adquisition mode, TOF MS with IDA MS/MS; column, Atlantis T3 C18, 2.1 x 15 mm, 3 μm; mobile phase, wa te r: acetonitrile: 0.1%: formic acid; flow rate, 0.3 mL/min; source temperature, 550 °C; column temperature, 25 °C; injection volume, 5 […]
concentration 1 mg/mL, NADPH 1.3 mM.
Table S5. Summary of LC‐MS conditions […]

[8] = In vivo pharmacokinetics in brain; conditions: male, CD1, mouse, ip, mice, 10 mg/kg intraperitoneal
Protocol: After treatment, mice were euthanized, and the plasma and brain were collected.
Male CD1 mice were supplied by the Laboratory Animal Service of the University of Granada (Granada, Spain) and housed in the Animal Facilities of the Center of Biomedical Investigation of the University of Granada. […] Calculations were performed using noncompartmental analysis of plasma data after intraperitoneal injection by means of PK Solver 2.0.
Basic PK parameters were calculated.

## CCOP(=O)(OCC)[C@]1(c2ccccc2)N=C[C@H]2C(=O)N(c3ccc(F)c(Cl)c3)C(=O)[C@H]21 (racemic) [B06, diethyl (1RS,3aSR,6aSR)-5-(3-chloro-4-fluorophenyl)-4,6-dioxo-1-phenyl-1,3a,4,5,6,6a-hexahydropyrrolo[3,4-c]pyrrole-1-phosphonate]
[1]
  effect on nitrite production: significantly reversed the increase in nitrite production
[2]; 0 min
  remaining percentage in mouse plasma: 100%
[2]; 10 min
  remaining percentage in mouse plasma: 100%
[2]; 20 min
  remaining percentage in mouse plasma: 69.7%
[2]; 40 min
  remaining percentage in mouse plasma: 48.3%
[2]; 60 min
  remaining percentage in mouse plasma: 21.6%
[3]; classification bands low/medium/high
  hepatic clearance category: medium clearance
[3]; minus NADPH, 0 min
  % compound remaining: 103.2 ± 13.82%
[3]; minus NADPH, 60 min
  % compound remaining: 75.30 ± 1.27%
[3]; plus NADPH, 0 min
  % compound remaining: 100.00 ± 14.46%
[3]; plus NADPH, 5 min
  % compound remaining: 98.60 ± 9.11%
[3]; plus NADPH, 15 min
  % compound remaining: 77.90 ± 13.20%
[3]; plus NADPH, 30 min
  % compound remaining: 54.10 ± 6.84%
[3]; plus NADPH, 45 min
  % compound remaining: 41.3 ± 5.83%
[3]; plus NADPH, 60 min
  % compound remaining: 29.40 ± 3.69%
[3]; human, human liver microsomes, pH 7.4, 1 µM, 1 mg/mL protein
  half-life at 1 μM: 28.4 min
[4]
  effect on body temperature: hypothermia
[5]; 60 min
  mice microsomal percentage remanent: 65.08%
[5]
  t ½ in mice microsomes: 91.72 min
[6]
  solubility: 92 µM (≈ 44.1 µg/mL)
[7]; minus NADPH, 0 min
  % compound remaining: 105.00 ± 23.97%
[7]; minus NADPH, 60 min
  % compound remaining: 83.20 ± 2.87%
[7]; plus NADPH, 0 min
  % compound remaining: 100.00 ± 25.58%
[7]; plus NADPH, 5 min
  % compound remaining: 135.00 ± 7.06%
[7]; plus NADPH, 15 min
  % compound remaining: 67.50 ± 4.15%
[7]; plus NADPH, 30 min
  % compound remaining: 30.30 ± 5.28%
[7]; plus NADPH, 45 min
  % compound remaining: 15.20 ± 1.98%
[7]; plus NADPH, 60 min
  % compound remaining: 6.08 ± 0.01%
[7]; mouse, microsomes
  half-life at 1 μM: 16.2 min
[8]; in vivo
  AUC(0-inf): 3310 ng·h/mL
  Cmax: 128 ± 66 ng/mL
  Tmax: 15 min
[8]; in vivo, read-out: AUC0–480 (converted)
  AUC(0-t): 2320 ng·h/mL
[8]
  half-life: 257 min
